From patent publication US20260262643A1, “HERBICIDAL BENZOXAZINES” (FMC CORPORATION, priority 2022, published 2026)

What was measured:
kochia = assay: Test C postemergence; format: in vivo, Bassia scoparia; settings: postemergence, 10 days
Summary of the method: (§1)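 Test material, in non-phytotoxic solvent with surfactant, was sprayed on the soil directly after seeding (preemergence) or on young plants of 2–10 cm with one to two leaves (postemergence). Greenhouse, 10 days; 0–100 visual control scale.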

goosegrass [1] = assay: Test C postemergence; format: in vivo, Eleusine indica; settings: postemergence, 10 days
Source text: (§2) Seeds of plant species selected from barnyardgrass (Echinochloa crusgalli), blackgrass (Alopecurus myosuroides), corn (Zea mays), foxtail, giant (giant foxtail, Setaria faberi), green foxtail (Setaria viridis), goosegrass (Eleusine indica), kochia (Bassia scoparia), oat, wild (wild oat, Avena fatua), pigweed, palmer (palmer amaranth, palmer pigweed, Amaranthus palmeri), Pigweed, Redroot (redroot pigweed, Amaranthus retroflexus), ragweed (common ragweed, Ambrosia artemisiifolia), ryegrass, Italian ([…] ryegrass, Lolium multiflorum), soybean (Glycine max), and wheat (Triticum aestivum) were planted into a blend of loam soil and sand and treated preemergence with a directed soil spray using test chemicals formulated in a non-phytotoxic solvent mixture which included a surfactant. At the same time, plants selected from these crops and weed species and also galium (catchweed bedstraw, Galium aparine) and horseweed (Erigeron canadensis) were planted in pots containing the same blend of loam soil and sand and treated with postemergence applications of test chemicals formulated in the same manner. Plants ranged in height from 2 to 10 cm and were in the one- to two-leaf stage for the postemergence treatment. Treated plants and untreated controls were maintained in a greenhouse for 10 days, after which time all treated plants were compared to untreated controls and visually evaluated for injury. Plant response ratings, summarized in Table C, are based on a 0 to 100 scale where 0 is no effect and 100 is complete control. A dash (-) response means no test result.

soybean [2] = assay: Test C preemergence; format: in vivo, Glycine max; settings: preemergence, 0 to 100 scale (0 no effect, 100 complete control)
Summary of the method: as §1

goosegrass [3] = assay: Test C preemergence; format: in vivo, Eleusine indica; settings: preemergence, 0 to 100 scale (0 no effect, 100 complete control)
Source text: as §2

ragweed [4] = assay: Test C preemergence; format: in vivo, Ambrosia artemisiifolia; settings: preemergence, 0 to 100 scale (0 no effect, 100 complete control)
Summary of the method: as §1

oat, wild [5] = assay: Test C postemergence; format: in vivo, Avena fatua; settings: postemergence, 10 days
Summary of the method: as §1

corn [6] = assay: Test C preemergence; format: in vivo, Zea mays; settings: preemergence, 0 to 100 scale (0 no effect, 100 complete control)
Summary of the method: as §1

pigweed, palmer [7] = assay: Test C postemergence; format: in vivo, Amaranthus palmeri; settings: postemergence, 10 days
Summary of the method: as §1

foxtail, giant [8] = assay: Test C preemergence; format: in vivo, Setaria faberi; settings: preemergence, 0 to 100 scale (0 no effect, 100 complete control)
Summary of the method: as §1

horseweed = assay: Test C postemergence; format: in vivo, Erigeron canadensis; settings: postemergence, 10 days
Summary of the method: as §1

wheat [9] = assay: Test C preemergence; format: in vivo, Triticum aestivum; settings: preemergence, 0 to 100 scale (0 no effect, 100 complete control)
Summary of the method: as §1

galium = assay: Test C postemergence; format: in vivo, Galium aparine; settings: postemergence, 10 days
Summary of the method: as §1

ragweed [10] = assay: Test C postemergence; format: in vivo, Ambrosia artemisiifolia; settings: postemergence, 10 days
Summary of the method: as §1

wheat [11] = assay: Test C postemergence; format: in vivo, Triticum aestivum; settings: postemergence, 10 days
Summary of the method: as §1

sedge, umbrella = assay: Test D flooded paddy test; format: in vivo, Cyperus difformis; settings: 250 g ai/ha, applied to paddy water, visual rating after 13 to 14 days, scale 0 to 100 (0 no effect, 100 complete control)
Summary of the method: (§3)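 Plants grown to the 2-leaf stage; pots flooded to 3 cm above soil at treatment and held at that depth throughout. Test compounds applied directly to the paddy water. After 13 to 14 days in a greenhouse, response was rated visually versus controls on a 0 (no effect) to 100 (complete control) scale.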

blackgrass [12] = assay: Test C preemergence; format: in vivo, Alopecurus myosuroides; settings: preemergence, 0 to 100 scale (0 no effect, 100 complete control)
Summary of the method: as §1

ryegrass, Italian [13] = assay: Test C postemergence; format: in vivo, Lolium multiflorum; settings: postemergence, 10 days
Summary of the method: as §1

foxtail, giant [14] = assay: Test C postemergence; format: in vivo, Setaria faberi; settings: postemergence, 10 days
Summary of the method: as §1

ducksalad = assay: Test D flooded paddy test; format: in vivo, Heteranthera limosa; settings: 250 g ai/ha, applied to paddy water, visual rating after 13 to 14 days, scale 0 to 100 (0 no effect, 100 complete control)
Summary of the method: as §3

corn [15] = assay: Test C postemergence; format: in vivo, Zea mays; settings: Zea mays, post-emergence, 240 h, postemergence, 10 days, 0 to 100 scale (0 no effect, 100 complete control)
Summary of the method: as §1

rice = assay: Test D flooded paddy test; format: in vivo, Oryza sativa; settings: 250 g ai/ha, applied to paddy water, visual rating after 13 to 14 days, scale 0 to 100 (0 no effect, 100 complete control)
Summary of the method: as §3

soybean [16] = assay: Test C postemergence; format: in vivo, Glycine max; settings: postemergence, 10 days
Summary of the method: as §1

ryegrass, Italian [17] = assay: Test C preemergence; format: in vivo, Lolium multiflorum; settings: preemergence, 0 to 100 scale (0 no effect, 100 complete control)
Summary of the method: as §1

pigweed, palmer [18] = assay: Test C preemergence; format: in vivo, Amaranthus palmeri; settings: preemergence, 0 to 100 scale (0 no effect, 100 complete control)
Summary of the method: as §1

blackgrass [19] = assay: Test C postemergence; format: in vivo, Alopecurus myosuroides; settings: Alopecurus myosuroides, post-emergence, 240 h, postemergence, 10 days, 0 to 100 scale (0 no effect, 100 complete control), read-out: Plant response rating, Blackgrass
Summary of the method: as §1

barnyardgrass = assay: Test D flooded paddy test; format: in vivo, Echinochloa crus-galli; settings: 250 g ai/ha, applied to paddy water, visual rating after 13 to 14 days, scale 0 to 100 (0 no effect, 100 complete control)
Summary of the method: as §3

oat, wild [20] = assay: Test C preemergence; format: in vivo, Avena fatua; settings: preemergence, 0 to 100 scale (0 no effect, 100 complete control)
Summary of the method: as §1

[21] = 125 g ai/ha, 0 to 100 scale, 0 no effect, 100 complete control
[22] = 500 g ai/ha, 0 to 100 scale (0 no effect, 100 complete control)

Question: What does the source list for `CC1Oc2ccccc2N(C(=O)c2cccc(-n3cncn3)c2)C1C` (centres unmarked) [Compound 285]?
Answer: Plant response rating, Kochia (kochia; [21]): 0; Plant response rating, Kochia (kochia; [22]): 0; Plant response rating, Goosegrass (goosegrass [1]; [21]): 0; Plant response rating, Goosegrass (goosegrass [1]; [22]): 0; Soybean plant response rating (soybean [2]; 500 g ai/ha): 0; Soybean plant response rating (soybean [2]; Test C, 125 g ai/ha): 0; Goosegrass plant response rating (goosegrass [3]; 500 g ai/ha): 0; Goosegrass plant response rating (goosegrass [3]; Test C, 125 g ai/ha): 0; Ragweed plant response rating (ragweed [4]; 500 g ai/ha): 0; Ragweed plant response rating (ragweed [4]; Test C, 125 g ai/ha): 0; Plant response rating, Oat, Wild (oat, wild [5]; [21]): 0; Plant response rating, Oat, Wild (oat, wild [5]; [22]): 0; Corn plant response rating (corn [6]; 500 g ai/ha): 0; Corn plant response rating (corn [6]; Test C, 125 g ai/ha): 0; Plant response rating, Pigweed, Palmer (pigweed, palmer [7]; [21]): 0; Plant response rating, Pigweed, Palmer (pigweed, palmer [7]; [22]): 0; Foxtail, Giant plant response rating (foxtail, giant [8]; 500 g ai/ha): 0; Foxtail, Giant plant response rating (foxtail, giant [8]; Test C, 125 g ai/ha): 0; Plant response rating, Horseweed (horseweed; [21]): 0; Plant response rating, Horseweed (horseweed; [22]): 0; Wheat plant response rating (wheat [9]; 500 g ai/ha): 0; Wheat plant response rating (wheat [9]; Test C, 125 g ai/ha): 0; Plant response rating, Galium (galium; [21]): 0; Plant response rating, Galium (galium; [22]): 30; Plant response rating, Ragweed (ragweed [10]; [21]): 0; Plant response rating, Ragweed (ragweed [10]; [22]): 0; Plant response rating, Wheat (wheat [11]; [21]): 0; Plant response rating, Wheat (wheat [11]; [22]): 0; Plant response rating, Sedge, Umbrella (Flood) (sedge, umbrella): 0; Blackgrass plant response rating (blackgrass [12]; 500 g ai/ha): 0; Blackgrass plant response rating (blackgrass [12]; Test C, 125 g ai/ha): 0; Plant response rating, Ryegrass, Italian (ryegrass, Italian [13]; [21]): 0; Plant response rating, Ryegrass, Italian (ryegrass, Italian [13]; [22]): 0; Plant response rating, Foxtail, Giant (foxtail, giant [14]; [21]): 0; Plant response rating, Foxtail, Giant (foxtail, giant [14]; [22]): 0; Plant response rating, Ducksalad (Flood) (ducksalad): 0; Corn plant response rating (crop injury, 0 = no effect, 100 = complete kill) at 125 g/ha (corn [15]; 125 g ai/ha): 0%; Corn plant response rating (crop injury, 0 = no effect, 100 = complete kill) at 500 g/ha (corn [15]; 500 g ai/ha): 0%; Plant response rating, Rice (Flood) (rice): 0; Plant response rating, Soybean (soybean [16]; [21]): 0; Plant response rating, Soybean (soybean [16]; [22]): 10; Ryegrass, Italian plant response rating (ryegrass, Italian [17]; 500 g ai/ha): 30; Ryegrass, Italian plant response rating (ryegrass, Italian [17]; Test C, 125 g ai/ha): 20; Pigweed, Palmer plant response rating (pigweed, palmer [18]; 500 g ai/ha): 0; Pigweed, Palmer plant response rating (pigweed, palmer [18]; Test C, 125 g ai/ha): 0; pest or weed control at 125 g/ha (blackgrass [19]; 125 g ai/ha): 0%; pest or weed control at 500 g/ha (blackgrass [19]; 500 g ai/ha): 0%; Plant response rating, Barnyardgrass (Flood) (barnyardgrass): 0; Oat, Wild plant response rating (oat, wild [20]; 500 g ai/ha): 0; Oat, Wild plant response rating (oat, wild [20]; Test C, 125 g ai/ha): 0
